Assay results from PubChem BioAssay AID1963837 (Molecular Pharmacology Branch, DTP, NCI, 2024).

Test system: 843126-344-R-J1-PDC complex spheroid viability
Test: Anticancer human tumor 843126-344-R-J1-PDC patient-derived melanoma cell line growth inhibition [POLQ]
Conditions: for IC50: curve of first compound; for viability, T/C: stronger effect = lower value
Summary of the method: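 Complex spheroid viability model combining PDC tumour cells with endothelial (HUVEC) and MSC stromal cells. Novobiocin, ART-558 or RP6685 were tested singly and in combination with standard and investigational anticancer drugs. Each was titrated in half-log steps from near clinical Cmax, or from 10 microM where Cmax was unknown.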

[1] = second compound 0.0316 µM, first compound 0.0316 µM
[2] = second compound 0.0316 µM, first compound 0.1 µM
[3] = second compound 0.0316 µM, first compound 0.316 µM
[4] = second compound 0.0316 µM, first compound 1 µM
[5] = second compound 0.0316 µM, first compound 3.16 µM
[6] = second compound 0.0316 µM, first compound 10 µM
[7] = second compound 0.1 µM, first compound 0.0316 µM
[8] = second compound 0.1 µM, first compound 0.1 µM
[9] = second compound 0.1 µM, first compound 0.316 µM
[10] = second compound 0.1 µM, first compound 1 µM
[11] = second compound 0.1 µM, first compound 3.16 µM
[12] = second compound 0.1 µM, first compound 10 µM
[13] = second compound 0.316 µM, first compound 0.0316 µM
[14] = second compound 0.316 µM, first compound 0.1 µM
[15] = second compound 0.316 µM, first compound 0.316 µM
[16] = second compound 0.316 µM, first compound 1 µM
[17] = second compound 0.316 µM, first compound 3.16 µM
[18] = second compound 0.316 µM, first compound 10 µM
[19] = second compound 1 µM, first compound 0.0316 µM
[20] = second compound 1 µM, first compound 0.1 µM
[21] = second compound 1 µM, first compound 0.316 µM
[22] = second compound 1 µM, first compound 1 µM
[23] = second compound 1 µM, first compound 3.16 µM
[24] = second compound 1 µM, first compound 10 µM
[25] = second compound 3.16 µM, first compound 0.0316 µM
[26] = second compound 3.16 µM, first compound 0.1 µM
[27] = second compound 3.16 µM, first compound 0.316 µM
[28] = second compound 3.16 µM, first compound 1 µM
[29] = second compound 3.16 µM, first compound 3.16 µM
[30] = second compound 3.16 µM, first compound 10 µM
[31] = second compound 10 µM, first compound 0.0316 µM
[32] = second compound 10 µM, first compound 0.1 µM
[33] = second compound 10 µM, first compound 0.316 µM
[34] = second compound 10 µM, first compound 1 µM
[35] = second compound 10 µM, first compound 3.16 µM
[36] = second compound 10 µM, first compound 10 µM
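For viability, T/C in this document: spheroids exposed to drugs for seven days before readout.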

With O=C(Nc1ccc(O)c(NS(=O)(=O)c2ccc(F)cc2)c1)c1ccc(-c2ccccc2)cc1 + Nc1ccc(C#CCN(C(=O)Cc2ncc(C(F)(F)F)cc2C(F)(F)F)c2ccc(F)cc2)nn1 the IC50 (second compound 0.0316 µM) was over 10000 nM, the IC50 (second compound 0.1 µM) was over 10000 nM and the IC50 (second compound 0.316 µM) was over 10000 nM. The IC50 (second compound 1 µM) was over 10000 nM, the IC50 (second compound 3.16 µM) was over 10000 nM and the IC50 (second compound 10 µM) was over 10000 nM. It also gave a viability, T/C [1] of 82.5%, a viability, T/C [2] of 94.9% and a viability, T/C [3] of 91.8%. It also gave a viability, T/C [4] of 80.5%, a viability, T/C [5] of 82.2% and a viability, T/C [6] of 73.6%. It also gave a viability, T/C [7] of 91.6%, a viability, T/C [8] of 102% and a viability, T/C [9] of 82.2%. The viability, T/C [10] was 85.4%, the viability, T/C [11] was 89.1% and the viability, T/C [12] was 64.8%. For the same molecule, the viability, T/C [13] was 100%, the viability, T/C [14] was 92.5% and the viability, T/C [15] was 98.8%. It also gave a viability, T/C [16] of 84.3%, a viability, T/C [17] of 96.3% and a viability, T/C [18] of 61.5%. For the same molecule, the viability, T/C [19] was 98.3%, the viability, T/C [20] was 97.1% and the viability, T/C [21] was 81.3%. The viability, T/C [22] was 90%, the viability, T/C [23] was 82.2% and the viability, T/C [24] was 67.8%. For the same molecule, the viability, T/C [25] was 92%, the viability, T/C [26] was 91.4% and the viability, T/C [27] was 89.5%. The viability, T/C [28] was 86.1%, the viability, T/C [29] was 78.8% and the viability, T/C [30] was 67.3%. It also gave a viability, T/C [31] of 82.3%, a viability, T/C [32] of 74.1% and a viability, T/C [33] of 86.9%. For the same molecule, the viability, T/C [34] was 72.4%, the viability, T/C [35] was 80.6% and the viability, T/C [36] was 55.4%.
O=c1[nH]cc(F)c(=O)[nH]1 + Cc1cccc(N(C)C(=O)C2C(O)CCN2c2nc(C)cc(C(F)(F)F)c2C#N)c1 gave an IC50 (second compound 0.0316 µM) of over 10000 nM, an IC50 (second compound 0.1 µM) of over 10000 nM and an IC50 (second compound 0.316 µM) of over 10000 nM. It also gave an IC50 (second compound 1 µM) of over 10000 nM, an IC50 (second compound 3.16 µM) of over 10000 nM and an IC50 (second compound 10 µM) of over 10000 nM. For the same molecule, the viability, T/C [1] was 101%, the viability, T/C [2] was 112% and the viability, T/C [3] was 104%. It also gave a viability, T/C [4] of 101%, a viability, T/C [5] of 87.3% and a viability, T/C [6] of 79.3%. The viability, T/C [7] was 99.8%, the viability, T/C [8] was 98.3% and the viability, T/C [9] was 96.5%. For the same molecule, the viability, T/C [10] was 97.5%, the viability, T/C [11] was 81.5% and the viability, T/C [12] was 93.2%. The viability, T/C [13] was 105%, the viability, T/C [14] was 108% and the viability, T/C [15] was 96.7%. It also gave a viability, T/C [16] of 82.2%, a viability, T/C [17] of 110% and a viability, T/C [18] of 103%. The viability, T/C [19] was 101%, the viability, T/C [20] was 88.6% and the viability, T/C [21] was 107%. The viability, T/C [22] was 110%, the viability, T/C [23] was 113% and the viability, T/C [24] was 96.5%. It also gave a viability, T/C [25] of 99.3%, a viability, T/C [26] of 94.5% and a viability, T/C [27] of 113%. The viability, T/C [28] was 95.8%, the viability, T/C [29] was 103% and the viability, T/C [30] was 91.5%. The viability, T/C [31] was 91.1%, the viability, T/C [32] was 85.8% and the viability, T/C [33] was 104%. It also gave a viability, T/C [34] of 102%, a viability, T/C [35] of 111% and a viability, T/C [36] of 90%.
Molecule CC1COCCN1c1cc(C2(O)CC3CCC(C2)O3)c2cnn(-c3ccn[nH]3)c2n1 (stereo not drawn) + Cc1cccc(N(C)C(=O)C2C(O)CCN2c2nc(C)cc(C(F)(F)F)c2C#N)c1 has an IC50 (second compound 0.0316 µM) of 487 nM, an IC50 (second compound 0.1 µM) of 470 nM and an IC50 (second compound 0.316 µM) of 580 nM. It also gave an IC50 (second compound 1 µM) of 385 nM, an IC50 (second compound 3.16 µM) of 640 nM and an IC50 (second compound 10 µM) of 763 nM. The viability, T/C [1] was 95.7%, the viability, T/C [2] was 78.6% and the viability, T/C [3] was 48.2%. It also gave a viability, T/C [4] of 44.8%, a viability, T/C [5] of 31% and a viability, T/C [6] of 20.7%. For the same molecule, the viability, T/C [7] was 84.6%, the viability, T/C [8] was 66% and the viability, T/C [9] was 58.5%. It also gave a viability, T/C [10] of 40.1%, a viability, T/C [11] of 28.5% and a viability, T/C [12] of 22.2%. For the same molecule, the viability, T/C [13] was 85.6%, the viability, T/C [14] was 74.9% and the viability, T/C [15] was 51.3%. It also gave a viability, T/C [16] of 45.2%, a viability, T/C [17] of 34% and a viability, T/C [18] of 19.2%. For the same molecule, the viability, T/C [19] was 99.3%, the viability, T/C [20] was 62.8% and the viability, T/C [21] was 56.9%. For the same molecule, the viability, T/C [22] was 40.8%, the viability, T/C [23] was 32.7% and the viability, T/C [24] was 21%. The viability, T/C [25] was 91.2%, the viability, T/C [26] was 80.5% and the viability, T/C [27] was 51.5%. The viability, T/C [28] was 47.5%, the viability, T/C [29] was 33.2% and the viability, T/C [30] was 20.6%. It also gave a viability, T/C [31] of 87.7%, a viability, T/C [32] of 82.8% and a viability, T/C [33] of 63.8%. It also gave a viability, T/C [34] of 45.2%, a viability, T/C [35] of 29.3% and a viability, T/C [36] of 17.7%.
For Cn1ncnc1[C@H]1c2n[nH]c(=O)c3cc(F)cc(c23)N[C@@H]1c1ccc(F)cc1 + COC1C(OC(N)=O)C(O)C(Oc2ccc3c(O)c(NC(=O)c4ccc(O)c(CC=C(C)C)c4)c(=O)oc3c2C)OC1(C)C, the IC50 (second compound 0.0316 µM) was over 100 nM, the IC50 (second compound 0.1 µM) was over 100 nM and the IC50 (second compound 0.316 µM) was over 100 nM. It also gave an IC50 (second compound 1 µM) of over 100 nM, an IC50 (second compound 3.16 µM) of over 100 nM and an IC50 (second compound 10 µM) of over 100 nM. It also gave a viability, T/C (second compound 0.0316 µM, first compound 0.000316 µM) of 83.3%, a viability, T/C (second compound 0.0316 µM, first compound 0.001 µM) of 87.8% and a viability, T/C (second compound 0.0316 µM, first compound 0.00316 µM) of 108%. It also gave a viability, T/C (second compound 0.0316 µM, first compound 0.01 µM) of 106%, a viability, T/C [1] of 97.8% and a viability, T/C [2] of 76.5%. The viability, T/C (second compound 0.1 µM, first compound 0.000316 µM) was 96.7%, the viability, T/C (second compound 0.1 µM, first compound 0.001 µM) was 103% and the viability, T/C (second compound 0.1 µM, first compound 0.00316 µM) was 93.5%. It also gave a viability, T/C (second compound 0.1 µM, first compound 0.01 µM) of 91.8%, a viability, T/C [7] of 121% and a viability, T/C [8] of 87.2%. The viability, T/C (second compound 0.316 µM, first compound 0.000316 µM) was 90.1%, the viability, T/C (second compound 0.316 µM, first compound 0.001 µM) was 109% and the viability, T/C (second compound 0.316 µM, first compound 0.00316 µM) was 81.2%. It also gave a viability, T/C (second compound 0.316 µM, first compound 0.01 µM) of 102%, a viability, T/C [13] of 90.3% and a viability, T/C [14] of 94.2%. For the same molecule, the viability, T/C (second compound 1 µM, first compound 0.000316 µM) was 89.7%, the viability, T/C (second compound 1 µM, first compound 0.001 µM) was 106% and the viability, T/C (second compound 1 µM, first compound 0.00316 µM) was 105%. It also gave a viability, T/C (second compound 1 µM, first compound 0.01 µM) of 84.3%, a viability, T/C [19] of 118% and a viability, T/C [20] of 76.1%. For the same molecule, the viability, T/C (second compound 3.16 µM, first compound 0.000316 µM) was 85.1%, the viability, T/C (second compound 3.16 µM, first compound 0.001 µM) was 99.1% and the viability, T/C (second compound 3.16 µM, first compound 0.00316 µM) was 101%. For the same molecule, the viability, T/C (second compound 3.16 µM, first compound 0.01 µM) was 89.9%, the viability, T/C [25] was 120% and the viability, T/C [26] was 94.1%. For the same molecule, the viability, T/C (second compound 10 µM, first compound 0.000316 µM) was 83.9%, the viability, T/C (second compound 10 µM, first compound 0.001 µM) was 102% and the viability, T/C (second compound 10 µM, first compound 0.00316 µM) was 101%. It also gave a viability, T/C (second compound 10 µM, first compound 0.01 µM) of 86.9%, a viability, T/C [31] of 80.9% and a viability, T/C [32] of 81.7%.
